Experimental findings from patent publication US7696244B2, “Compounds having activity in increasing ion transport by mutant-CFTR and uses thereof” (The Regents of the University of California, priority 2003, dated 2010) are described below.

Assay [1] deals with human bronchial epithelial cells. Nature of the assay: Short-circuit current in human bronchial epithelial cells. It counts as cell-based. The conditions noted are these: S.E., n=3-5. The method, then: Using chamber experiments were performed 7-9 days after plating ΔF508-CFTR expressing FRT cells on Snapwell inserts. The basolateral solution contained (in mM): 130 NaCl, 2.7 KCl, 1.5 KH2PO4, 1 CaCl2, 0.5 MgCl2, 10 glucose, 10 Na-Hepes (pH 7.3). In the apical bathing solution 65 mM NaCl was replaced by Na gluconate, and CaCl2 was increased to 2 mM. Solutions were bubbled with air and maintained at 37° C. The basolateral membrane was permeabilized with 250 μg/ml amphotericin B. For human bronchial epithelial cells, apical and basolateral chambers contained 126 mM NaCl, 0.38 mM KH2PO4, 2.1 mM K2HPO, 1 mM MgSO4, 1 mM CaCl2, 24 mM NaHCO3, and 10 mM glucose (basolateral membrane not permeabilized). The hemichambers were connected to a DVC-1000 voltage clamp (World Precision Instruments) via Ag/AgCl electrodes and 1 M KCl agar bridges for recording short-circuit current
The mean increase in short-circuit current (Isc) was 1.2±0.1 μA/cm^2 in the human cells (S.E., n=25). In five sets of measurements on the human bronchial cells, the percentage increase in Isc after compound versus forskolin alone was 174±28 (genistein); percentages for ΔF508act-01 through ΔF508act-06 were (S.E., n=3-5): 174±34, 131±35, 40±11, 51±17, 107±42, and 104±35, respectively.

In assay [2] the target is T1, human ΔF508-CFTR (Homo sapiens, UniProt P13569, DEL508-508).
T1 construct: expressed in transfected cells; host or cells: Fischer rat thyroid (FRT) epithelial cells
T1 sequence (P13569 with tags, fused parts or gaps DEL508-508): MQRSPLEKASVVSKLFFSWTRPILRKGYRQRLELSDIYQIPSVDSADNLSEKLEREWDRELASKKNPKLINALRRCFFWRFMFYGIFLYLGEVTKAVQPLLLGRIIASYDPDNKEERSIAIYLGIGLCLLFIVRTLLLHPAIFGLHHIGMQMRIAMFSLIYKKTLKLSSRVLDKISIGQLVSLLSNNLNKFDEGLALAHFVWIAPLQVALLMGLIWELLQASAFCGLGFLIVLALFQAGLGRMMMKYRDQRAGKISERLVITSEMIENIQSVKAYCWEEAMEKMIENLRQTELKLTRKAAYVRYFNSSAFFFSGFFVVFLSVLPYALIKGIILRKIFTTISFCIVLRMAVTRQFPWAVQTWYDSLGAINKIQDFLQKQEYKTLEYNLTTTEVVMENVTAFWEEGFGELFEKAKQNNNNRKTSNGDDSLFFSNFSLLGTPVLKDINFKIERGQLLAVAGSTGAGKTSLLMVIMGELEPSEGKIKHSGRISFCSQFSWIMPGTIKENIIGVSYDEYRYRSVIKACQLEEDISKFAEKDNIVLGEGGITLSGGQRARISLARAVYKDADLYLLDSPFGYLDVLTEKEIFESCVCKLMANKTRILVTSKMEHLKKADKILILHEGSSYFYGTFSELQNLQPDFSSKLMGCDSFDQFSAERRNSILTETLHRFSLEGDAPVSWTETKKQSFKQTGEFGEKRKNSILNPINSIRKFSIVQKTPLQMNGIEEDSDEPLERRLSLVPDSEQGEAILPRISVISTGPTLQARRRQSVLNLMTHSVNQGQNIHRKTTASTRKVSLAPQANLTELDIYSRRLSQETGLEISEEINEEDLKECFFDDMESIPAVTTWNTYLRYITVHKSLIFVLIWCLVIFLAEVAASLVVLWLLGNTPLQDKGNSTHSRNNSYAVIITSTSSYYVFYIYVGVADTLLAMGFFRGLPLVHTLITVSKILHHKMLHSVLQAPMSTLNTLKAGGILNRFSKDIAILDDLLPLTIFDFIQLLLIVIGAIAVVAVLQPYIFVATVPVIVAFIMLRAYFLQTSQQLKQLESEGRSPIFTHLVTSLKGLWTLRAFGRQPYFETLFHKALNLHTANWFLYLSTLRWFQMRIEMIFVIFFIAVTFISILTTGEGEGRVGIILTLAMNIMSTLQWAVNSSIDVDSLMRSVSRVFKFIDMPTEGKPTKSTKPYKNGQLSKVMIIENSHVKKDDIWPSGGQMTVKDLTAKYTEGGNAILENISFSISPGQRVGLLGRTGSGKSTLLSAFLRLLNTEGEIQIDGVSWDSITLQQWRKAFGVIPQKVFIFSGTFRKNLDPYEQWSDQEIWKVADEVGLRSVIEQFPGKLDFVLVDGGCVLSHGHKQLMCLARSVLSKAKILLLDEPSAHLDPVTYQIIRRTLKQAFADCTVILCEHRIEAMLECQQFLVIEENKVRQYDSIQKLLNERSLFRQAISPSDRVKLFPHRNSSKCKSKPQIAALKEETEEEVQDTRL
Kind of assay: Fluorescence (YFP-H148Q/I152L) I− influx assay of ΔF508-CFTR potentiator activity in FRT cells. It is filed as cell-based. The conditions noted are these: for Kd: FRT cells, 27° C. rescue, forskolin 20 μM, read-out: Kd for activation of ΔF508-CFTR from the fluorescence assay. The method, then:
(§1) Clonal populations of Fischer rat thyroid (FRT) epithelial cells stably co-expressing human ΔF508-CFTR and the high-sensitivity halide-sensing green fluorescent analog YFP-H148Q/I152L (Galietta et al., A.S. (2001) FEBS Lett. 499, 220-224) were generated by liposome transfection and limiting dilution with Zeocin/G418 selection. More than 100 clones were evaluated for high fluorescence and ΔF508-CFTR plasma membrane targeting after growth at 27° C. for 24 hours. For screening, cells were cultured on plastic in Coon's modified F12 medium supplemented with 10% fetal bovine serum, 2 mM L-glutamnine, 100 U/ml penicillin, and 100 μg/ml streptomycin, and plated on black 96-well microplates (Corning-Costar 3904) at 30,000 cells/well. For short-circuit measurements cells were cultured on Snapwell permeable supports (Corning-Costar) at 500,000 cells/insert. Some measurements were done using stably transfected FRT cells expressing YFP-H148Q and wildtype- or G551D-CFTR (Galietta et al., (2001) J. Biol. Chem. 276, 19723-19728). Patch clamp experiments were done on ΔF508-CFTR-expressing FRT cells plated in 35-mm Petri dishes.
For assay of ΔF508-CFTR potentiator activity the incubator (27° C., 90% humidity, 5% CO2/95% air) was loaded with forty-to-sixty 96-well plates containing FRT cells. After an 18-24 hour incubation plates were washed 3 times with PBS (300 μl/wash) leaving 50 μl PBS. 10 μl of PBS containing 120 μM forskolin was added, and after 5 min test compounds (0.6 μl of 0.25 mM DMSO solution) were added to each well to give 2.5 μM final-compound concentrations. After 15 min, 96-well plates were transferred to a plate reader for fluorescence assay. Each well was assayed individually for I^− influx by recording fluorescence continuously (200 ms per point) for 2 s (baseline) and then for 12 s after rapid (<1 s) addition of 160 μL of isosmolar PBS in which 137 mM Cl^− was replaced by I^−.I^− influx rates were computed from initial fluorescence versus time-curve slopes (determined by 3rd order polynomial regression) after normalization for total fluorescence (background subtracted initial fluorescence).
The high-throughput screen was designed to identify compounds that activated ΔF508-CFTR when expressed at the cell plasma membrane. FRT epithelial cells co-expressing ΔF508-CFTR and a high sensitivity green fluorescent protein-based halide indicator were incubated at 27° C. for 24 h to permit ΔF508-CFTR plasma membrane targeting (FIG. 1A). After washing, forskolin (20 μM) and test compounds (2.5 μM) were added to individual wells of 96-well plates. The I^− influx assay was carried out ˜15 min later by measurement of the time course of decreasing YFP fluorescence after creation of an inwardly-directed I^− gradient. A high concentration of forskolin was used to identify ΔF508-CFTR potentiators that may interact directly with ΔF508-CFTR rather than alter cAMP concentration. Since activation of CFTR requires cAMP stimulation, forskolin, an enhancer of cAMP, was added to the in vitro models in order to mimic the cellular cAMP stimulation.
The strong potentiators were subjected to secondary analysis to select a subset for further analysis. None of the strong potentiators stimulated I^− influx in the fluorescence assay using FRT null cells (expressing YFP-H148Q/[…] alone) or in ΔF508-CFTR expressing cells in the absence of forskolin. The increased I^− influx for each potentiator was blocked by the thiazolidinone CFTR inhibitor CFTRinh-172 (19). […] Several of these compounds are shown in FIG. 6, along with data as to the activity of these compounds.

The subject of assay [3] is phosphatase activity. Nature of the assay: Phosphatase activity assay on cell homogenates. It counts as biochemical. The method, then:
(§2) cAMP activity was measured using the BIOTRAK enzymatic immunoassay (Amersham) on FRT cell lysates after incubation with the compound of interest for 10 min without or with 0.5 μM forskolin. Phosphatase activity was determined on cell homogenates using a non-radioactive assay kit (Promega) as described previously (Galietta et al., (2001) J. Biol. Chem. 276, 19723-19728).
(§3) The compounds shown in FIGS. 2A and 3A were assayed for cAMP stimulation and phosphatase inhibition. Cellular cAMP content was measured in FRT cells in the presence of a low forskolin concentration (0.5 μM) with or without test compounds. […] Maximal forskolin (20 μM) gave 1350±17 finol/well. The ΔF508 potentiators at 5 μM gave no increase in cellular cAMP content, except for ΔF508act-04 and ΔF508act-06, which gave modest cAMP elevations (212±17 and 281±37 finol/well, respectively). […] The ΔF508-CFTR potentiators (25 μM, 48 h) were judged to be non-toxic to FRT cells by the dihydrorhodamine assay (Wang et al., (2000) J. Physiol. 524:637-638) and by unimpaired cell growth.

The target of assay [4] is T2, wildtype CFTR (Homo sapiens, UniProt P13569).
T2 construct: expressed in transfected cells; host or cells: FRT cells
T2 sequence (P13569 whole entry): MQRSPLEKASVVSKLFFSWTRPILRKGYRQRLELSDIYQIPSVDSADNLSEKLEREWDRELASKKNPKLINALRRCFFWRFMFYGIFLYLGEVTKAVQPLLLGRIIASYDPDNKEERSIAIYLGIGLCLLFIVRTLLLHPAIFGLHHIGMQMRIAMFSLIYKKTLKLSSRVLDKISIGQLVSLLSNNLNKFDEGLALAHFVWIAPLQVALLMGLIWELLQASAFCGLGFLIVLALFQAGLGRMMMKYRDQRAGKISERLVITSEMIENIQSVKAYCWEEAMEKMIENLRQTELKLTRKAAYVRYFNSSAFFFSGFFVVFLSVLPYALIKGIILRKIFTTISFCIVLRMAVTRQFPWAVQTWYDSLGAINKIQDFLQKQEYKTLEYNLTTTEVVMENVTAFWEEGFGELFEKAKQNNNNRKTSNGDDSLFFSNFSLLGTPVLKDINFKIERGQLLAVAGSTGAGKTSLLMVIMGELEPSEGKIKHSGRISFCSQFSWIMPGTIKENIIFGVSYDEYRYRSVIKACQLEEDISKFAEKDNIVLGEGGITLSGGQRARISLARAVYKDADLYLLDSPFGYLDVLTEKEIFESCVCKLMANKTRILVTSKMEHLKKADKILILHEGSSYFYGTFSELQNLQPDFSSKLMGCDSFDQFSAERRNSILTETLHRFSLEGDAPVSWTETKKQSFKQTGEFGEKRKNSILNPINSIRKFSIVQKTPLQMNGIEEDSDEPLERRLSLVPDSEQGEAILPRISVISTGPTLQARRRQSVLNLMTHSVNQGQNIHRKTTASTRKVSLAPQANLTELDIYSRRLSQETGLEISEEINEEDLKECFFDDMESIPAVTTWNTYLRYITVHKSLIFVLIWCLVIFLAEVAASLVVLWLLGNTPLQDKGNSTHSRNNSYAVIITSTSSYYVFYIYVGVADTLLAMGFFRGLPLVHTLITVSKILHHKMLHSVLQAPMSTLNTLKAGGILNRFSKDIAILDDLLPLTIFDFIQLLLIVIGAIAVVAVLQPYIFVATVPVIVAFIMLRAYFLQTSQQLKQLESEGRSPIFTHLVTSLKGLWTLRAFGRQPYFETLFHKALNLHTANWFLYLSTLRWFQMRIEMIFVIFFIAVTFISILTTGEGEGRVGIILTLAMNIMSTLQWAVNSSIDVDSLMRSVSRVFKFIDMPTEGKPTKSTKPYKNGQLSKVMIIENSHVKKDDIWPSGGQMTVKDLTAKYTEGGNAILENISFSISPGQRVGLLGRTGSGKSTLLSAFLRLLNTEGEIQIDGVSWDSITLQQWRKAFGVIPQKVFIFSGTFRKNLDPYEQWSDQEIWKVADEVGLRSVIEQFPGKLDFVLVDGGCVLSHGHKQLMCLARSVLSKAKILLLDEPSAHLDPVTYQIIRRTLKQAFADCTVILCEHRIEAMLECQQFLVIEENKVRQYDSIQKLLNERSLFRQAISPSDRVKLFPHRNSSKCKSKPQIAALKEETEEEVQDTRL
Nature of the assay: Activation of wildtype CFTR in transfected FRT cells. It counts as cell-based. The conditions noted are these: in the presence of forskolin 50 nM. As for the experimental part: as §1
The six ΔF508-CFTR potentiators shown in FIG. 2A were tested for activation of wildtype and G551D-CFTR in transfected FRT cells. […] Kd values for activation of wildtype CFTR by ΔF508act-01 through ΔF508act-06 were (in μM): 0.18±0.02, 1.3±0.2, 2.2±0.3, 0.02±0.005, 0.06±0.01 and 0.05±0.01, respectively. These potencies are quite different from those for ΔF508-CFTR activation.

The test system of assay [5] is cellular cAMP content. Kind of assay: Cellular cAMP content in FRT cells (BIOTRAK enzymatic immunoassay). It counts as cell-based, rat. As for the experimental part: as §2, §3
Assay [6] has as its target T3, G551D-CFTR (Homo sapiens, UniProt P13569, G551D).
T3 construct: expressed in transfected cells; host or cells: FRT cells
Kind of assay: Activation of G551D-CFTR in transfected FRT cells. It counts as cell-based. The conditions noted are these: positive control 50 μM + 20 μM forskolin. As for the experimental part:
as §1, with “For screening, cells were cultured on plastic in Coon's modified F12 medium supplemented with 10% fetal bovine serum, 2 mM L-glutamnine, 100 U/ml penicillin, and 100 μg/ml streptomycin, and plated on black 96-well microplates (Corning-Costar 3904) at 30,000 cells/well.” left out

Setting [7] is: compound 5 μM, forskolin 0.5 μM, control 129±7.

T3 sequence (P13569 whole entry G551D): as the sequence (P13569 whole entry) above, with G551D counted along it

`COc1ccc(-n2c(C)cc(C=C3C(=O)NC(=O)N(Cc4ccco4)C3=O)c2C)cc1` [ΔF508act-01, 1-Furan-2-yhnethyl-5-[1-(4-methoxy-phenyl)-2,5-dimethyl-1H-pyrrol-3-ylmethylene]-pyrimidine-2,4,6-trione]: the “percentage increase in Isc after compound versus forskolin alone” value (“percentage increase in Isc” below) in assay [1] turned out to be 174±34%. For the same compound, in assay [2], the dissociation constant (Kd) turned out to be 1300 ± 100 nM.

On to `C=C1[C@@H](O)[C@@H]2O[C@]3(CC[C@H](/C=C/[C@@H](C)[C@@H]4CC(C)=C[C@@]5(O[C@H](C[C@@](C)(O)C(=O)O)CC[C@H]5O)O4)O3)CC[C@H]2O[C@@H]1[C@@H](O)C[C@H](C)[C@H]1O[C@@]2(CCCCO2)CC[C@H]1C` [okadaic acid], for which the “inhibition of phosphatase activity” value in assay [3] was > 90%. Also, the phosphatase activity in assay [3] (control 703±69) was 56±15 pmol free phosphate/μg protein.

`COC(=O)C1=C(C)NC(C)=C(C(=O)OC)C1c1ccc(C(C)C)cc1` [ΔF508act-05, 4-(4-Isopropyl-phenyl)-2,6-dimethyl-1,4-dihydro-pyridine-3,5-dicarboxylic acid dimethyl ester]: the dissociation constant (Kd) came to 60 ± 10 nM in assay [4] and 100 ± 10 nM in assay [2]. In assay [1], the “percentage increase in Isc” value came to 107±42%.

As to `NC(=O)c1c(NC(=O)c2ccccc2Cl)sc2c1CCCC2` [ΔF508act-02, 2-(2-Chloro-benzoylamino)-4,5,6,7-tetrahydro-benzo[b]thiophene-3-carboxylic acid amide], the values for the Kd in assay [4] and in assay [2] were 1300 ± 200 nM and 180 ± 30 nM, respectively. The “percentage increase in Isc” value in assay [1] came out at 131±35%.

Regarding `Cc1cc(Br)c2[nH]c3c(c2c1)CCCC3=O` [ΔF508act-03, 8-Bromo-6-methyl-2,3,4,9-tetrahydro-carbazol-1-one], the equilibrium dissociation constant (Kd) in assay [4] turned out to be 2200 ± 300 nM; in assay [2], 700 ± 40 nM. In addition, the “percentage increase in Isc” value in assay [1] came to 40±11%.

Take `CC(C)(C)c1ccc(Oc2c(N)ccc3c2C(=O)c2ccccc2C3=O)cc1` [ΔF508act-04, 2-Amino-1-(4-tert-butyl-phenoxy)-anthraquinone]: in assay [5] (setting [7]), the cAMP content was found to be 212±17 finol/well. Further, the Kd in assay [4] came to 20 ± 5 nM; in assay [2], 870 ± 100 nM. Besides, the “percentage increase in Isc” value in assay [1] is recorded as 51±17%.

For `C=C[C@@]1(C)CC(=O)[C@]2(O)[C@@]3(C)[C@@H](O)CCC(C)(C)[C@@H]3[C@H](O)[C@H](OC(C)=O)[C@@]2(C)O1` [forskolin, reference compound], the cAMP content in assay [5] (maximal forskolin 20 μM) is listed as 1350±17 finol/well.

As to `NC(=O)c1oc2ccccc2c1NC(=O)c1ccccc1` [ΔF508act-06, 3-Benzoylamino-benzofuran-2-carboxylic acid amide], in assay [5] (setting [7]), the cAMP content is 281±37 finol/well. Also, the Kd is 50 ± 10 nM in assay [4] and 650 ± 80 nM in assay [2]. Also, the “percentage increase in Isc” value in assay [1] is 104±35%.

As to `O=C(O)c1ccc(/C=C2\SC(=S)N(c3cccc(C(F)(F)F)c3)C2=O)cc1` [CFTRinh-172, reference compound], the “effect on potentiator-increased I− influx” value in assay [2] is listed as “blocked”.

`O=c1c(-c2ccc(O)cc2)coc2cc(O)cc(O)c12` [genistein, reference compound]: the “percentage increase in Isc” value in assay [1] came to 174±28%. Besides, in assay [6], the G551D-CFTR activation entry is given as “strong activation”.

What is called Kd is the concentration at which binding is half-saturated.
